Laboratory results taken from patent US20160367622A1, “AGONISTS OF GUANYLATE CYCLASE USEFUL FOR THE TREATMENT OF OPIOID INDUCED DYSFUNCTIONS” (priority 2013, published 2016).
Read-outs that look alike come from different tables or passages of the source. Positions of bridges follow the written chain, without caps; N, C: chain ends. Non-standard residues stand in square brackets, D forms with d. Residues, ends and D or L forms follow the SMILES beside them.

Legend:
[1] = system: female Sprague-Dawley rats; assay: morphine-induced delay in rat GI transit (charcoal meal); assay type: in vivo; details: 2.5 mg/kg morphine IP
Method: Animals: All study procedures were conducted under a study outline approved by the Institutional Animal Care and Use Committee of MB Research Labs (Spinnerstown, Pa.) or Lampire Biological Laboratories (Pipersville, Pa.). Seven to eight week old female Sprague-Dawley rats [Crl:CD(SD)], weighing between ˜180-210 grams, were obtained from Charles River Laboratories and allowed to acclimate for a week. Animals were maintained on a 12 hour light-dark cycle. For intestinal tissue collection and evaluation of GI transit, rats were fasted for at least 18 hours before the experiment, with free access to water.
The ability of opioids to delay GI transit in rats was tested by either administering 0 (vehicle) 0.25, 1 and 2.5 mg/kg of morphine or 0 (vehicle), 0.25, 2.5 and 5 mg/kg of methadone (1.5 ml/kg dose volume) by IP injection. Water served as vehicle control. Ten minutes later, a 2 mL charcoal meal consisting of 10% activated charcoal (Sigma-Aldrich, St. Louis, Mo.) and 10% gum Arabic (Sigma-Aldrich, St. Louis, Mo.) in water was administered via oral gavage. Rats were euthanized 10 min after the charcoal meal via IP injection of 150 mg/kg Beuthanasia-D solution (sodium pentobarbital, 390 mg/mL). The small intestine was removed and the total length from the pyloric sphincter to the ileocecal junction was recorded, as well as the distance traveled by the leading edge of the charcoal. Intestinal transit was determined by calculating the ratio (expressed as a percentage) of the distance between the pyloric sphincter and the leading edge of the charcoal to the distance between the pyloric sphincter and the ileocecal junction.
To evaluate the ability of SP-333 to reverse morphine induced delayed GI transit, animals were administered 2.5 mg/kg of morphine by IP injection followed immediately by oral gavage of 0 (vehicle), 0.5, 2.5, 5 and 50 mg/kg of SP-333 (1.5 ml/kg dose volume). Water served as vehicle control. Charcoal meal was administered ten minutes later and animals were euthanized ten minutes after the charcoal meal and intestinal transit was calculated as described above.

[2] = system: patients with symptoms of OIC treated for non-malignant chronic pain with opioid therapy; assay: randomized 4-week placebo-controlled dose-ranging study in OIC: efficacy; assay type: in vivo, human; details: for Week 4 change from baseline in SBMs, LS Mean (SE) / Week 4 change from baseline in SBMs, Mean (SD): observed cases, mITT population
Excerpt: A Randomized, 4-Week, Double-Blind, Placebo-Controlled, Dose-Ranging Study to Assess the Safety and Efficacy of Sp-333 for the Treatment of Opioid-Induced Constipation (OIC) in Patients with Non-Malignant Chronic Pain Receiving Opioid Therapy
To evaluate the clinical efficacy of SP-333 compared with placebo, in patients with symptoms of OIC who have been treated for non-malignant chronic pain with opioid therapy.
The primary efficacy endpoint was to determine the mean change from baseline in the number of […] (SBMs) during Week 4 of the Treatment Period. Safety was assessed by analysis of the frequency of treatment-emergent adverse events (TEAEs), adverse events leading to withdrawal, and serious adverse events (SAEs).

[3] = randomized 4-week study in OIC: SP-333 plasma levels; assay type: in vivo, human; details: for level at 0.5 h / level at 1 h: human, plasma, 6 mg, SP-333: 6 mg, read-out: SP-333 concentration; for level at 0.5 h: time 30; for level at 1 h: time 60
Excerpt: To assess the safety and tolerability of SP-333. To evaluate the pharmacodynamic effects of SP-333. To evaluate the pharmacokinetic properties of SP-333.

[4] = system: T84 cells monolayer
[5] = system: rat jejunum tissue
[6] = system: female Sprague-Dawley CD rats; assay: methadone-induced constipation in rats (fecal output); assay type: in vivo, rat; details: methadone 2.5 mg/kg IP daily 9 days; SP-333 2.5, 5.0 and 10 mg/kg oral daily
[7] = 30 and/or 60 minute time points

Question: Which results are given for `CC(C)C[C@@H]1NC(=O)[C@H](CCC(=O)O)NC(=O)[C@@H](NC(=O)[C@H](CCC(=O)O)NC(=O)[C@H](CC(=O)O)NC(=O)[C@H](N)CC(N)=O)CSSC[C@@H]2NC(=O)[C@H](C)NC(=O)[C@H](C(C)C)NC(=O)[C@H](CC(N)=O)NC(=O)[C@H](C(C)C)NC(=O)[C@H](CSSC[C@@H](C(=O)N[C@H](CC(C)C)C(=O)O)NC(=O)CNC(=O)[C@H]([C@@H](C)O)NC2=O)NC1=O` [SP-333, dAsn^1-Asp^2-Glu^3-Cys^4-Glu^5-Leu^6-Cys^7-Val^8-Asn^9-Val^10-Ala^11-Cys^12-Thr^13-Gly^14-Cys^15-dLeu^16] (H-[dN]DECELCVNVACTGC[dL]-OH; disulfide 4-12, 7-15)?
Answer: GI transit in morphine-treated rats ([1]; then SP-333 0.5 mg/kg oral gavage): 27%; GI transit in morphine-treated rats ([1]; then SP-333 2.5 mg/kg oral gavage): 37%; GI transit in morphine-treated rats ([1]; then SP-333 5 mg/kg oral gavage): 46%; GI transit in morphine-treated rats ([1]; then SP-333 50 mg/kg oral gavage): 48%; primary endpoint (mean change from baseline in SBMs during Week 4) ([2]; 3 mg and 6 mg doses): statistically significant improvement; Week 4 change from baseline in SBMs, Difference from Placebo ([2]; SP-333 1 mg): 0.613 SBMs/week; Week 4 change from baseline in SBMs, LS Mean (SE) ([2]; SP-333 1 mg): 2.436 (0.3800) SBMs/week; Week 4 change from baseline in SBMs, Mean (SD) ([2]; SP-333 1 mg): 2.429 (2.7363) SBMs/week; Week 4 change from baseline in SBMs, Difference from Placebo ([2]; SP-333 3 mg): 1.405 SBMs/week; Week 4 change from baseline in SBMs, LS Mean (SE) ([2]; SP-333 3 mg): 3.227 (0.3858) SBMs/week; Week 4 change from baseline in SBMs, Mean (SD) ([2]; SP-333 3 mg): 3.210 (3.8524) SBMs/week; Week 4 change from baseline in SBMs, Difference from Placebo ([2]; SP-333 6 mg): 1.528 SBMs/week; Week 4 change from baseline in SBMs, LS Mean (SE) ([2]; SP-333 6 mg): 3.351 (0.3919) SBMs/week; Week 4 change from baseline in SBMs, Mean (SD) ([2]; SP-333 6 mg): 3.379 (3.1424) SBMs/week; maximum plasma level value observed [3, 7]: 2.71 ng/mL; number of patients in whom SP-333 plasma levels were observed [3, 7]: 4 patients; level at 0.5 h ([3]; subject 006-004, visit week 1): 2.71 ng/mL; level at 1 h ([3]; subject 006-004, visit week 1): 1.77 ng/mL; level at 0.5 h ([3]; subject 007-013, visit week 1): 1.38 ng/mL; level at 0.5 h ([3]; subject 026-016, visit week 4): 1.88 ng/mL; level at 1 h ([3]; subject 026-016, visit week 4): 1.5 ng/mL; level at 0.5 h ([3]; subject 047-002, visit week 4): 1.21 ng/mL; increase in Isc ([4]; 0.01-10 μM at mucosal surface of T84 cells): concentration-dependent increase in Isc approaching saturation at 10 μM; stimulation of Isc ([4]; treatment from the basolateral chamber, T84 monolayer): did not stimulate Isc; increase in Isc ([5]; 0.01-10 μM at mucosal surface of rat jejunum): concentration-dependent increase in Isc approaching saturation at 10 μM; stimulation of Isc ([5]; treatment from the basolateral chamber, rat jejunum tissues): did not stimulate Isc; average number of pellets compared to the methadone dosed group [6]: higher compared to the methadone dosed group
